Laboratory results reported in patent US20060141047A1, “Methods and compositions for delivery of catecholic butanes for treatment of obesity” (priority 2003, published 2006).
Values joined by “and” are separate entries in the source; they are usually repeats but may differ in a detail not shown here. Equal entries are not always repeated. Where two headings read alike, the source gives them in different places.

Experiments:
[1] = test system: HPV-16 transformed immortal mouse epithelial cells (C3); conditions: intratumor injection, separately or together, U.S. Pat. No. 6,417,234 and 6,214,874; cited from earlier work
[2] = Tissue distribution of 3H-M4N after a single intraperitoneal or intravenous injection; assay type: in vivo, mice; conditions: 3 hours post-injection, i.p. or i.v.
Procedure: M4N Tissue Distribution Studies Using 3H—M4N. […] The insoluble pellet was then further extracted with EtOH.
A mixture of tritiated and cold M4N was dissolved in a 6% Cremaphor EL, 6% ethanol, 88% saline solvent then injected intraperitoneally (i.p.) and intravenously (i.v.) via tail vein into mice. At 3 hours post-injection, the organs and blood were harvested and weighed, and the M4N was extracted. […] M4N was successfully distributed to various organs at 3 hours post-injection by both i.p. and i.v. routes of administration. […] Corroborating this, a very similar profile of distribution was observed using an oral route of administration described below. The majority of the recovered radioactivity localized to the gastrointestinal tract organs: the stomach, small intestine, caecum, and large intestine, in the range of 3 μg to 20 μg of M4N per gram of tissue.

[3] = Maximum amount of M4N dissolved in Cremaphor EL/ethanol/saline solvent; assay type: physicochemical; conditions: 6% Cremaphor EL, 6% ethanol, 88% saline
Procedure: To assess the toxicity of prolonged intraperitoneal systemic treatment with M4N, and to determine a safe dosage for the following xenograft experiments, the following toxicity test was performed.

[4] = Short-term oral feeding, M4N tissue levels by HPLC; assay type: in vivo, mice
Procedure: (§1) Tissue Distribution and Toxicity Analysis Following Short-Term and Long-Term Oral Feeding. For short-term feeding experiments, 30 mg of M4N dissolved in 300 μL castor oil was orally administered to each of 6 mice. At 2 h, 4 h, and 8 h post-administration time points, 2 mice were sacrificed, the organs and blood were collected, and the M4N extracted and quantitated as described below. In long-term feeding experiments, mice were fed food balls consisting of M4N dissolved in corn oil and Basal Mix (Harlan Teklad; Madison, Wis.; Cat. # TD 02273) for 14 weeks. Food balls weighed 9 g and contained 242 mg M4N each. Two mice, one male and one female, were reserved for long-term drug retention studies; and fourteen mice, both male and female, were used for long-term drug toxicity studies. At the end of feeding, mice were sacrificed, the organs and blood were collected, and the M4N extracted and quantitated as described below.
M4N Extraction and HPLC Analysis Following Oral Feeding. […] The dried samples were then analyzed quantitatively by HPLC and M4N was identified by mass spectroscopy using pure M4N as a standard.
In samples from short-term fed mice, dialysis was performed to further purify M4N from the tissue extracts. […] The dialysates were dried on benchtop and in a speed-vac, then analyzed by HPLC.
HPLC Quantitation of M4N. […]

[5] = assay type: in vivo; conditions: for % Weight Change / Weight on End Date: M4N-fed mice
Procedure: as §1, with “In long-term feeding experiments, mice were fed food balls consisting of M4N dissolved in corn oil and Basal Mix (Harlan Teklad; Madison, Wis.; Cat. # TD 02273) for 14 weeks.” left out
In particular, weight was measured on a bi-weekly or monthly basis. […] However, to assess long-term drug toxicity, only the mice that were treated for more than 20 weeks were compared. A total of 14 mice were treated for more than 20 weeks, 6 M4N-treated and 8 control mice. Since females generally eat less than males and have lower body weight, comparisons were drawn between mice of the same sex. […] The fact that the control mice, both male and female, consumed much more food than the M4N-treated mice evidences a greater preference for food in the control subjects.

[6] = Fresh weights of isolated organs after 20 week feeding with fat-rich diet containing M4N; assay type: in vivo, mice
Procedure: (§2) While no definite conclusions can be made regarding most organs due to the small size of the populations tested, a decrease in adipocyte (fat cells) weight was nevertheless significant (0.84 g vs. 0.196 g) following a 20 week feeding with a fat-rich diet containing M4N. In particular, fat tissues from two control mice (C24 and C25) which were fed a fat-rich diet without M4N were isolated and incubated with CREM solvent or with CREM solvent plus M4N for a total period of 6 days (first extract 72 hours and second extract for an additional 72 hours). The fat cell weights were measured at 0 time, the third day and the sixth day following incubation in CREM solvent and without M4N.

[7] = test system: fat tissues; assay: Incubation of isolated fat tissue with CREM solvent plus M4N, fat weight; parameters: species or system mice
Procedure: as §2

[8] = dogs
Procedure: In this example the Maximal Tolerable Dose (MTD) of two different formulations of M4N [Cremaphor-Ethanol (CET) or Dimethyl Sulfoxide (DMSO)] to male and female Beagle Dogs was determined.
Dogs were treated prophylactically with an analgesic and antibiotic on the day of surgery and with antibiotics and/or analgesics following surgery (according to Gene Logic Inc. SOP Nos. 324.0.2, 325.0.1, and 326.0.2, as appropriate.) Other treatments were provided as recommended by the staff veterinarian. The catheter lines were flushed with saline during the postoperative recovery period with a frequency deemed appropriate by the Study Director.
Thus the M4N-DMSO group animals were administered with M4N-DMSO with eight intravenous injections via the non-VAP jugular vein every 30 minutes over a 4-hour period. This frequency of delivery mimicked the delivery of the test article using the infusion pump.
Animals from the CET group were observed during the entire infusion period and for at least one hour following end of infusion. The dogs in the DMSO group were observed throughout the jugular vein injection period and for at least one hour following the last (eighth) injection.

[9] = Toxicokinetic (TK) analysis of M4N serum concentration; assay type: in vivo, Beagle Dogs; conditions: dogs, CET or DMSO formulations, minimal toxicity
Procedure: Blood samples from the CET group animals were collected via the jugular vein on Study Day (SD) 1, SD 3, SD 6, and SD 8 at the following time points: predose, 0.25, 0.5, 1, 2, 4, 8, and 16 hours following the completion of the approximate 4-hour infusion.
Blood samples from the DMSO group animals were collected via the cephalic vein on SD 1, SD 3, SD 6, and SD 8 at the following time points: predose, 0.25, 0.5, 1, 2, 4, 8, and 16 hours following the final injection dose of M4N-DMSO.
Blood samples collected from both groups of animals were processed for plasma and serum for TK analysis.
The plasma and serum samples were sent to MedTox Laboratories, the Sponsor's designated laboratory for TK analysis. TK analysis of M4N plasma and serum concentration-time data was performed using a validated method (M200406) by MedTox Laboratories and analyzed by noncompartmental methods to obtain estimates of toxicokinetic parameters (where data allow), but not necessarily limited to, Cmax, Tmax and AUC.

[10] = mouse, in vivo, ip
Procedure: M4N Tissue Distribution Studies Using 3H—M4N. Harlan ICR mice or C3 cell-induced tumor-bearing C57bl/6 mice were injected via tail vein or intraperitoneally with 100 μL of Cremaphor-ethanol based solvent containing 100 μCi of tritiated M4N and 60 mM of cold M4N. At the specified time post-injection, the mice were sacrificed, the organs and blood were collected, weighed, then dissolved overnight in 4 M guanidine isothiocyanate (GITC). The insoluble pellet was then further extracted with EtOH. Tritium content of both the GITC extract and the EtOH extract was measured on a Packard scintillation counter and the quantity of M4N in each organ was calculated based on the specific activity of the inoculum.
To determine the distribution of M4N in tissues over time following a single application, and also to assess the ability to deliver M4N to a distant tumor, six C3 cell-induced tumor bearing mice (A-F) were treated i.p. with ^3H— M4N as described above. At 4 hours, 6 hours, 18 hours, and 6 days post-injection, the quantities of ^3H— M4N in various tissues and the tumors were measured.

[11] = test system: mammary carcinoma MX-1 xenograft; conditions: intratumor injection or topical application, athymic mice, U.S. Pat. No. 5,008,294; cited from earlier work

C[C@H](Cc1ccc(OC(=O)CN(C)C)c(OC(=O)CN(C)C)c1)[C@@H](C)Cc1ccc(OC(=O)CN(C)C)c(OC(=O)CN(C)C)c1 [G4N, meso-1,4-bis[3,4-(dimethylaminoacetoxy)phenyl]-(2R,3S)-dimethylbutane]
Suppression of tumor growth [1]: some evidence of suppression of tumor growth

COc1ccc(C[C@@H](C)[C@@H](C)Cc2ccc(OC)c(OC)c2)cc1OC [M4N, meso-1,4-bis(3,4-dimethoxyphenyl)-2,3-dimethylbutane]
M4N detected in heart or blood [2]: Little or no M4N | M4N present in liver and fat [2]: Significant quantities | Maximum amount of M4N which may be dissolved in the solvent [3]: 20 mg/mL | M4N in each tissue ([4]; 2 hours post-feeding, 30 mg M4N in castor oil, oral): < 2 ng per gram tissue | Time of peak M4N levels ([4]; post-feeding, single oral 30 mg M4N): roughly 4 hours | Average % Weight Change ([5]; Female mice treated 20 weeks): 24.9% | Average Amount of Food Consumed ([5]; Female mice treated 20 weeks): 258.8 g | % Weight Change ([5]; length of treatment 8 weeks): 20.5% and 18.1% | Weight on End Date ([5]; length of treatment 8 weeks): 26.4 g and 24.1 g | Weight on End Date ([5]; length of treatment 9 weeks): 18.9 g and 24.2 g and 19.7 g | % Weight Change ([5]; length of treatment 11 weeks): 11.8% | Weight on End Date ([5]; length of treatment 11 weeks): 20.8 g | Average % Weight Change ([5]; Male mice treated 20 weeks): 21% | Average Amount of Food Consumed ([5]; Male mice treated 20 weeks): 225 g and 225.0 g | Effect on appetite ([5]; both male and female mice, long-term oral feeding): reduced the appetite | Effect on body weight ([5]; mice, systemic or oral administration): caused weight loss | Toxic effects on female mice ([5]; mouse, in vivo, po): did not have toxic effects | Fresh organ weight, Bladder ([6]; Female, 20 week feeding): 0.034 g | Fresh organ weight, Caecum ([6]; Female, 20 week feeding): 0.162 g | Fresh organ weight, Colon ([6]; Female, 20 week feeding): 0.195 g | Fresh organ weight, Heart ([6]; Female, 20 week feeding): 0.107 g | Fresh organ weight, Kidney ([6]; Female, 20 week feeding): 0.3 g | Fresh organ weight, Liver ([6]; Female, 20 week feeding): 1.153 g | Fresh organ weight, Lung ([6]; Female, 20 week feeding): 0.205 g | Fresh organ weight, Pancreas ([6]; Female, 20 week feeding): 0.18 g | Fresh organ weight, Small Intestine ([6]; Female, 20 week feeding): 1.193 g | Fresh organ weight, Spleen ([6]; Female, 20 week feeding): 0.08 g | Fresh organ weight, Stomach ([6]; Female, 20 week feeding): 0.243 g | Fresh weight, Fat ([6]; Female, 20 week feeding): 0.509 g | Fresh organ weight, Bladder ([6]; Male, 20 week feeding): 0.026 g | Fresh organ weight, Caecum ([6]; Male, 20 week feeding): 0.133 g | Fresh organ weight, Colon ([6]; Male, 20 week feeding): 0.186 g | Fresh organ weight, Heart ([6]; Male, 20 week feeding): 0.319 g | Fresh organ weight, Kidney ([6]; Male, 20 week feeding): 0.35 g | Fresh organ weight, Liver ([6]; Male, 20 week feeding): 1.44 g | Fresh organ weight, Lung ([6]; Male, 20 week feeding): 0.156 g | Fresh organ weight, Pancreas ([6]; Male, 20 week feeding): 0.121 g | Fresh organ weight, Small Intestine ([6]; Male, 20 week feeding): 1.44 g | Fresh organ weight, Small Vesicles ([6]; Male, 20 week feeding): 0.154 g | Fresh organ weight, Spleen ([6]; Male, 20 week feeding): 0.065 g | Fresh organ weight, Stomach ([6]; Male, 20 week feeding): 0.177 g | Fresh organ weight, Testes ([6]; Male, 20 week feeding): 0.189 g | Fresh weight, Fat ([6]; Male, 20 week feeding with fat-rich diet): 0.196 g | Fat Weight After First Extraction ([7]; fat tissue of mouse C25, 72 hours in CREM solvent + 21.4 mg M4N): 0.481 g | Fat Weight After Second Extraction ([7]; fat tissue of mouse C25, additional 72 hours (6 days total) in CREM solvent + M4N): 0.059 g | Dose safely administered by intravenous infusion over four hours ([8]; CET vehicle): up to 10 mg/kg | Dose safely administered by intravenous infusion over four hours ([8]; DMSO vehicle): up to 100 mg/kg | Blood levels of M4N achieved [9]: up to 14,000 ng/ml | M4N in the tumor [10]: 294 ng M4N per gram of wet tumor | M4N tissue levels at 6 days post-injection relative to levels at 6 hours [10]: 5-10% | Time of peak M4N tissue levels [10]: approximately 6 hours | Suppression of tumor growth [1]: some evidence of suppression of tumor growth

CC(Cc1ccc(O)c(O)c1)C(C)Cc1ccc(O)c(O)c1 (stereo not drawn) [NDGA, nordihydroguaiaretic acid]
Inhibition of tumor growth [11]: Some evidence of inhibition of tumor growth
